Source: the CheMixHub viscosity set
± gives the uncertainty stated by the source.

Assay: xn = mol fraction of the nth substance listed

COCCOC + CCCCCCCO
101 kPa
Settings	viscosity [mPa·s]
293.15 K, x1 = 0.04689	5.696 ± 0.06
293.15 K, x1 = 0.1108	4.364 ± 0.046
293.15 K, x1 = 0.1958	3.168 ± 0.033
293.15 K, x1 = 0.2906	2.308 ± 0.024
293.15 K, x1 = 0.402	1.645 ± 0.017
293.15 K, x1 = 0.4906	1.283 ± 0.013
293.15 K, x1 = 0.6674	0.843 ± 0.009
293.15 K, x1 = 0.7068	0.768 ± 0.008
293.15 K, x1 = 0.8006	0.631 ± 0.007
293.15 K, x1 = 0.894	0.525 ± 0.006
293.15 K, x1 = 0.948	0.477 ± 0.005
303.15 K, x1 = 0.03301	4.403 ± 0.047
303.15 K, x1 = 0.1088	3.286 ± 0.035
303.15 K, x1 = 0.1924	2.49 ± 0.026
303.15 K, x1 = 0.2936	1.802 ± 0.019
303.15 K, x1 = 0.4015	1.325 ± 0.014
303.15 K, x1 = 0.4903	1.066 ± 0.011
303.15 K, x1 = 0.594	0.842 ± 0.009
303.15 K, x1 = 0.7001	0.671 ± 0.007
303.15 K, x1 = 0.8062	0.542 ± 0.006
303.15 K, x1 = 0.8901	0.467 ± 0.005
303.15 K, x1 = 0.9469	0.425 ± 0.005
313.15 K, x1 = 0.04399	3.176 ± 0.034
313.15 K, x1 = 0.1188	2.473 ± 0.026
313.15 K, x1 = 0.1968	1.933 ± 0.021
313.15 K, x1 = 0.2941	1.478 ± 0.016
313.15 K, x1 = 0.404	1.121 ± 0.012
313.15 K, x1 = 0.4883	0.918 ± 0.01
313.15 K, x1 = 0.6006	0.717 ± 0.008
313.15 K, x1 = 0.6962	0.591 ± 0.006
313.15 K, x1 = 0.8094	0.482 ± 0.005
313.15 K, x1 = 0.9	0.41 ± 0.004
313.15 K, x1 = 0.9404	0.386 ± 0.004

CCC(C)=O + CCCCCO
viscosity [mPa·s], 100 kPa
Settings	x1 = 0.0814	x1 = 0.1574	x1 = 0.2391	x1 = 0.3486	x1 = 0.4417	x1 = 0.5529	x1 = 0.6492	x1 = 0.7389	x1 = 0.8509	x1 = 0.9389
293.15 K	2.92 ± 0.29	2.27 ± 0.23	1.8 ± 0.18	1.33 ± 0.13	1.07 ± 0.11	0.84 ± 0.08	0.66 ± 0.07	0.55 ± 0.06	0.42 ± 0.04	0.39 ± 0.04
303.15 K	2.31 ± 0.23	1.82 ± 0.18	1.46 ± 0.15	1.12 ± 0.11	0.91 ± 0.09	0.73 ± 0.07	0.61 ± 0.06	0.52 ± 0.05	0.45 ± 0.05	0.4 ± 0.04
313.15 K	1.8 ± 0.18	1.45 ± 0.15	1.2 ± 0.12	0.92 ± 0.09	0.77 ± 0.08	0.63 ± 0.06	0.54 ± 0.05	0.46 ± 0.05	0.4 ± 0.04	0.36 ± 0.04
323.15 K	1.45 ± 0.15	1.18 ± 0.12	0.99 ± 0.1	0.78 ± 0.08	0.66 ± 0.07	0.54 ± 0.05	0.46 ± 0.05	0.4 ± 0.04	0.35 ± 0.04	0.32 ± 0.03
